The text below walks through data of US20220162558A1, “METHOD FOR INDUCING DIFFERENTIATION OF STEM CELLS INTO CHONDROCYTES BY USING OLIGOPEPTIDES” (POSTERA HEALTH SCIENCE Inc., priority 2019, published 2022).

Entries after “also recorded” stand apart in the source; their conditions may differ.

Format in all cases: cell-based
The subject of assay [1] is COL II in tonsil-derived mesenchymal stem cells. The assay can be described thus: Immunofluorescence assay of COL II protein in sectioned 3D pellets. As to conditions: 3D pellet culture, compared with control system and WFE- or WLE-treated system. How it is done:
Tonsil-derived mesenchymal stem cells (passage 6) were enzymatically detached by trypsin treatment and counted by a hemocytometer. The tube was centrifuged in 500-g relative centrifugal force (RCF) for 10 minutes and incubated at 37° C. under 5% carbon dioxide for 24 hours. A cell pellet consisting of about 3.0×10^5 cells was formed in a conical polypropylene tube (15 mL). The FBS-containing growth medium was replaced by medium A containing a high-glucose DMEM supplemented with 1.0% (v/v) antibiotic/antimitotic solution, 1.0% (v/v) penicillin/streptomycin solution, 50 μg/mL ascorbate-2-phosphate, 40 μg/mL L-proline, and 1% ITS+Premix (final concentration: 10 μg/mL bovine insulin, 5.5 μg/mL transferrin, 5 μg/mL sodium selenite, 4.7 μg/mL linoleic acid, and 0.5 mg/mL BSA), and 100 nM dexamethasone. Pellets were cultured at 37° C. under 5% carbon dioxide for 21 days under the following three different conditions: 1) medium A only, 2) medium A supplemented with kartogenin, or 3) medium A supplemented with each tripeptides. Each medium was replaced every three days. […]
The stem cell pellets were fixed in formalin aqueous solution (10% v/v) and embedded in paraffin. […] Then, the sectioned cell pellet samples were deparaffinized by xylene, and analyzed by immunofluorescence using antibody, alcian blue staining, and safranin O staining to visualize COL II, sGAG and proteoglycan, respectively. […]

The subject of assay [2] is tonsil-derived mesenchymal stem cells (TMSCs). The assay can be described thus: 3D pellet culture: biomarker mRNA expression by real-time RT-PCR. Conditions: tripeptide 10 μM, 3D pellet culture in chondrogenic medium. As for the experimental part: (§1) Tonsil-derived mesenchymal stem cells (passage 6) were enzymatically detached by trypsin treatment and counted by a hemocytometer. The tube was centrifuged in 500-g relative centrifugal force (RCF) for 10 minutes and incubated at 37° C. under 5% carbon dioxide for 24 hours. A cell pellet consisting of about 3.0×10^5 cells was formed in a conical polypropylene tube (15 mL). The FBS-containing growth medium was replaced by medium A containing a high-glucose DMEM supplemented with 1.0% (v/v) antibiotic/antimitotic solution, 1.0% (v/v) penicillin/streptomycin solution, 50 μg/mL ascorbate-2-phosphate, 40 μg/mL L-proline, and 1% ITS+Premix (final concentration: 10 μg/mL bovine insulin, 5.5 μg/mL transferrin, 5 μg/mL sodium selenite, 4.7 μg/mL linoleic acid, and 0.5 mg/mL BSA), and 100 nM dexamethasone. Pellets were cultured at 37° C. under 5% carbon dioxide for 21 days under the following three different conditions: 1) medium A only, 2) medium A supplemented with kartogenin, or 3) medium A supplemented with each tripeptides. Each medium was replaced every three days. Triplicate experiments were carried out for each system.
(§2) Total RNA was extracted from the cells by using a TRIZOL™ reagent (Invitrogen, USA). The mRNA concentration was assayed by Nano Drop 2000 spectrophotometer (Thermo Scientific, USA). cDNA was synthesized by ReverTra Ace® qPCR RT kit (Toyobo, Japan). mRNA expression levels were analyzed by real-time RT-PCR (CFX96™, Bio-Rad, USA) using IQ™ SYBR® Green Supermix (Bio-Rad, USA). The expression levels of target genes were calculated as 2^−ΔΔCt by the following calculation equation, and the primer sequences are shown in Table 1 below.
(§3) ΔΔCt=(gene A−GAPDH)−(gene A−GAPDH)control
The medium was supplemented with each tripeptide (10 μM), and tonsil-derived mesenchymal stem cells (size: ˜ mm) were prepared. Chondrogenic medium without tripeptide was used as control experiment. Medium supplemented with kartogenin (target molecule) instead of tripeptide was used for the purpose of comparing chondrogenic differentiation of tonsil-derived mesenchymal stem cells.
A general note: In qPCR the cycle at which signal appears reflects the starting amount.

Assay [3] shares this test system. The assay can be described thus: First-round screening: chondrogenic biomarker mRNA expression by real-time RT-PCR in 2D culture. Conditions: tripeptide 10 μM, serum-free medium, after 7 days of incubation. How it is done: The medium was replaced every three days.
as §2, §3

Assay [4] concerns sGAG in tonsil-derived mesenchymal stem cells. The assay can be described thus: Alcian blue staining of sectioned 3D pellets. As to conditions: 3D pellet cultured 21 days, sections of 7 μm. How it is done: as §1
In assay [5] the test system is proteoglycan in tonsil-derived mesenchymal stem cells. The assay is described as follows: Safranin O staining of sectioned 3D pellets. Conditions: 3D pellet cultured 21 days, sections of 7 μm. How it is done:
as §1

Take `O=C(O)c1ccccc1C(=O)Nc1ccc(-c2ccccc2)cc1` [kartogenin, reference compound]: in assay [1], the “COL II at protein level, red staining by immunofluorescence” value is given as “distinguished for their red staining by COL II”.
On to tryptophan-leucine-glutamic acid [WLE], for which the “chondrogenic mRNAs of COL II, COMP and ACAN, expression” value (from here on “chondrogenic mRNAs of COL II”) in assay [2] is listed as “highly expressed”. For the same molecule, the “chondrogenic biomarker expression at mRNA level (COL II, SOX 9, COMP)” value (shortened to “chondrogenic biomarker expression”) in assay [3] is given as “enhanced”.
Regarding “tryptophan-phenylalanine-glutamic acid [WFE]”, the “chondrogenic mRNAs of COL II” value in assay [2] is given as “highly expressed”. The “chondrogenic biomarker expression” value in assay [3] was “enhanced”.
Regarding tyrosine-tyrosine-glutamic acid [YYE], the “sGAG, alcian blue staining” value in assay [4] is “upregulated”. The “chondrogenic mRNAs of COL II” value in assay [2] is given as “highly expressed”. The “expression levels of COL X and COL I α2 relative to control system” value in assay [2] (hypertrophy / osteogenic biomarkers) was “less than half of the control system”. Also, in assay [5], the “proteoglycan, safranin O staining” value was “upregulated”. The “chondrogenic biomarker expression” value in assay [3] was “enhanced; also recorded: good promoter comparable to kartogenin”. The “COL II at protein level, red staining by immunofluorescence” value in assay [1] was “distinguished for their red staining by COL II”.
